Active and inactive are the calls of the source. The rule behind the calls is not given here.
Tests used:
Erythrocyte [1] = assay: Hemolytic activity in sheep RBC assessed as reduction in hemoglobin at 256 uM incubated for 1 hr; type: ADME, cell-based, Ovis aries
[2] = Cytotoxicity against mouse RAW264.7 cells assessed as reduction in cell viability at 20 uM incubated for 24 hrs by MTT assay; type: cell-based; conditions: read-out: INH
[3] = Cytotoxicity against mouse NIH/3T3 cells assessed as reduction in cell viability at 20 uM incubated for 24 hrs by MTT assay; type: cell-based, NIH3T3; conditions: NIH/3T3 cells, read-out: INH
Staphylococcus aureus [4] = assay: Antibacterial activity against Staphylococcus aureus KCTC 1621 assessed as reduction in bacterial growth incubated for 24 hrs by CLSI based broth dilution method; type: functional; conditions: read-out: MIC100
Staphylococcus aureus [5] = assay: Antibacterial activity against methicillin-resistant Staphylococcus aureus CCARM 3090 assessed as reduction in bacterial growth incubated for 24 hrs by CLSI based broth dilution method; type: functional; conditions: read-out: MIC100
Escherichia coli [6] = assay: Antibacterial activity against Escherichia coli KCTC 1682 assessed as reduction in bacterial growth incubated for 24 hrs by CLSI based broth dilution method; type: functional; conditions: read-out: MIC100
[7] = Antibacterial activity against multidrug-resistant Pseudomonas aeruginosa CCARM 2095 assessed as reduction in bacterial growth incubated for 24 hrs by CLSI based broth dilution method; type: functional; conditions: read-out: MIC100
[8] = Antibacterial activity against multidrug-resistant Pseudomonas aeruginosa CCARM 2109 assessed as reduction in bacterial growth incubated for 24 hrs by CLSI based broth dilution method; type: functional; conditions: read-out: MIC100
Candida albicans [9] = assay: Antifungal activity against Candida albicans KCTC 7965 assessed as reduction in fungal growth incubated for 24 hrs by CLSI based broth dilution method; type: functional; conditions: read-out: MIC100
Candida albicans [10] = assay: Antifungal activity against Candida albicans KCTC 7121 assessed as reduction in fungal growth incubated for 24 hrs by CLSI based broth dilution method; type: functional; conditions: read-out: MIC100
Erythrocyte [11] = assay: Hemolytic activity in sheep RBC assessed as reduction in hemoglobin incubated for 1 hr; type: ADME, cell-based, Ovis aries
Bacteria = assay: Antibacterial activity against Gram positive bacteria assessed as reduction in bacterial growth incubated for 24 hrs by CLSI based broth dilution method; type: functional; conditions: read-out: MIC100
[12] = Therapeutic index, ratio of HC10 for sheep RBC to geometric mean MIC for gram negative bacteria; type: toxicity; conditions: sheep red blood cells, read-out: TI
RAW264.7 [13] = assay: Antiinflammatory activity against mouse RAW264.7 cells assessed as reduction in LPS-induced nitrite level at 5 uM incubated for 24 hrs by Griess reagent based assay relative to control; type: functional
RAW264.7 [14] = assay: Antiinflammatory activity against mouse RAW264.7 cells assessed as reduction in LPS-induced iNOS mRNA expression at 5 uM incubated for 6 hrs by qRT-PCR analysis; type: functional, cell-based
Escherichia coli [15] = assay: Antibacterial activity against Escherichia coli KCTC 1682 assessed as reduction in bacterial growth incubated for 24 hrs in presence of 4.5 mM KCl by CLSI based broth dilution method; type: functional; conditions: read-out: MIC100
Escherichia coli [16] = assay: Antibacterial activity against Escherichia coli KCTC 1682 assessed as reduction in bacterial growth incubated for 24 hrs in presence of 6 uM NH4Cl by CLSI based broth dilution method; type: functional; conditions: read-out: MIC100
Escherichia coli [17] = assay: Antibacterial activity against Escherichia coli KCTC 1682 assessed as reduction in bacterial growth incubated for 24 hrs in presence of 20 % serum by CLSI based broth dilution method; type: functional; conditions: read-out: MIC100
Staphylococcus aureus [18] = assay: Antibacterial activity against Staphylococcus aureus KCTC 1621 assessed as reduction in bacterial growth incubated for 24 hrs in presence of 6 uM NH4Cl by CLSI based broth dilution method; type: functional; conditions: read-out: MIC100
Staphylococcus aureus [19] = assay: Antibacterial activity against Staphylococcus aureus KCTC 1621 assessed as reduction in bacterial growth incubated for 24 hrs in presence of 1 mM MgCl2 by CLSI based broth dilution method; type: functional; conditions: read-out: MIC100
Staphylococcus aureus [20] = assay: Antibacterial activity against Staphylococcus aureus KCTC 1621 assessed as reduction in bacterial growth incubated for 24 hrs in presence of 2.5 mM CaCl2 by CLSI based broth dilution method; type: functional; conditions: read-out: MIC100
Staphylococcus aureus [21] = assay: Antibacterial activity against Staphylococcus aureus KCTC 1621 assessed as reduction in bacterial growth incubated for 24 hrs in presence of 4 uM FeCl3 by CLSI based broth dilution method; type: functional; conditions: read-out: MIC100
Staphylococcus aureus [22] = assay: Antibacterial activity against methicillin-resistant Staphylococcus aureus CCARM 3090 assessed as reduction in bacterial growth incubated for 24 hrs in presence of chloramphenicol by CLSI based broth dilution method; type: functional; conditions: read-out: MIC100
Staphylococcus aureus [23] = assay: Antibacterial activity against methicillin-resistant Staphylococcus aureus CCARM 3090 assessed as reduction in bacterial growth incubated for 24 hrs in presence of oxacillin by CLSI based broth dilution method; type: functional; conditions: read-out: MIC100
Staphylococcus aureus [24] = assay: Antibacterial activity against methicillin-resistant Staphylococcus aureus CCARM 3090 assessed as fractional inhibitory concentration incubated for 24 hrs in presence of chloramphenicol by CLSI based broth dilution method; type: functional
Staphylococcus aureus [25] = assay: Antibacterial activity against methicillin-resistant Staphylococcus aureus CCARM 3090 assessed as fractional inhibitory concentration incubated for 24 hrs in presence of ciprofloxacin by CLSI based broth dilution method; type: functional
Staphylococcus aureus [26] = assay: Antibacterial activity against methicillin-resistant Staphylococcus aureus CCARM 3090 assessed as fractional inhibitory concentration incubated for 24 hrs in presence of oxacillin by CLSI based broth dilution method; type: functional
[27] = Antibacterial activity against multidrug-resistant Pseudomonas aeruginosa CCARM 2095 assessed as fractional inhibitory concentration incubated for 24 hrs in presence of chloramphenicol by CLSI based broth dilution method; type: functional
[28] = Antibacterial activity against multidrug-resistant Pseudomonas aeruginosa CCARM 2095 assessed as fractional inhibitory concentration incubated for 24 hrs in presence of oxacillin by CLSI based broth dilution method; type: functional
[29] = Antibacterial activity against multidrug-resistant Pseudomonas aeruginosa CCARM 2095 assessed as fractional inhibitory concentration index incubated for 24 hrs in presence of ciprofloxacin by CLSI based broth dilution method; type: functional
Escherichia coli [30] = assay: Bactericidal activity against Escherichia coli KCTC 1682 assessed as reduction in colony forming unit at MIC measured at 3 hrs by time kill assay; type: functional
Cell membrane [31] = assay: Induction of cell membrane permeability in Staphylococcus aureus KCTC 1621 assessed as cytoplasmic membrane depolarization at 16 uM by DiSC3-5 dye based spectrofluorometry; type: subcellular
Cell membrane [32] = assay: Induction of cell membrane permeability in Staphylococcus aureus KCTC 1621 assessed as cytoplasmic membrane depolarization at 16 uM by SYTOX dye based fluorescence assay; type: subcellular
DNA = assay: Binding affinity to Escherichia coli pBR322 DNA assessed as increase in DNA retardation at 8 uM incubated for 1 hr by agarose gel electrophoresis relative to control; type: nucleic-acid assay
Lipopolysaccharide (LPS) [33] = assay: Displacement of BODIPY-TR cadaverine from Escherichia coli O111:B4 LPS at 20 uM measured for 100 sec by spectrofluorometry relative to control
RAW264.7 [34] = assay: Antiinflammatory activity in mouse RAW264.7 cells assessed as neutralization of LPS binding by measuring LPS-FITC aggregation at 10 uM pretreated with LPS for 1 hr followed by compound addition and measured after 1 hr by flowcytometry analysis (reference value: 48.12 %); type: functional
[35] = Retention time of the compound by RP-HPLC method; type: physicochemical
Lipopolysaccharide (LPS) [36] = assay: Displacement of BODIPY-TR cadaverine from Escherichia coli O111:B4 LPS at 10 uM measured for 100 sec by spectrofluorometry relative to control

Substance | Activity (Erythrocyte [1]) | cytotoxicity at 24 h, 20 µM [2] [%] | cytotoxicity at 24 h, 20 µM [3] [%] | MIC (Staphylococcus aureus [4]) [µM] | MIC (Staphylococcus aureus [5]) [µM] | MIC (Escherichia coli [6]) [µM] | MIC [7] [µM] | MIC [8] [µM] | MIC (Candida albicans [9]) [µM] | MIC (Candida albicans [10]) [µM] | HC10 (Erythrocyte [11]) [µM] | MIC (Bacteria) [µM] | selectivity ratio [12] | inhibition at 5 µM (RAW264.7 [13]) [%] | inhibition (RAW264.7 [14]) | MIC (Escherichia coli [15]) [µM] | MIC (Escherichia coli [16]) [µM] | MIC (Escherichia coli [17]) [µM] | MIC (Staphylococcus aureus [18]) [µM] | MIC (Staphylococcus aureus [19]) [µM] | also measured
H-LIKKIYRKWKRW-NH2 | Non-Toxic | < 10 | < 10 | 4 | 8 | 8 | 8 | 8 | 8 | 4 | > 256 | 7.1 | 91.4 | 51.4 | Active | 2 | 2 | 8 | 8 | 4 | MIC (Staphylococcus aureus [20]): 4 µM; MIC (Staphylococcus aureus [21]): 8 µM; MIC (Staphylococcus aureus [22]): 32 µM; MIC (Staphylococcus aureus [23]): 64 µM; FIC (Staphylococcus aureus [24]): 0.25; FIC (Staphylococcus aureus [25]): 0.25; FIC (Staphylococcus aureus [26]): 0.125; FIC [27]: 0.0625; FIC [28]: 0.125; fractional inhibitory concentration index (FICI) [29]: 0.375; Activity (Escherichia coli [30]): <2 log10CFU/ml; Activity (Cell membrane [31]): inactive; Activity (Cell membrane [32]): inactive; Activity (DNA): 100%; Activity (Lipopolysaccharide (LPS) [33]): 68%; Activity (RAW264.7 [34]): 24.41%; Retention_time [35]: 16.2 min
H-LWKKIYRKWKRW-NH2 | Non-Toxic | < 10 | < 10 | 2 | 8 | 4 | 8 | 4 | 8 | 4 | > 256 | 6.8 | 128 | 91.6 | Active | 4 | 2 | 8 | 2 | 4 | MIC (Staphylococcus aureus [20]): 4 µM; MIC (Staphylococcus aureus [21]): 8 µM; MIC (Staphylococcus aureus [22]): 32 µM; MIC (Staphylococcus aureus [23]): 64 µM; FIC (Staphylococcus aureus [24]): 0.25; FIC (Staphylococcus aureus [25]): 0.125; FIC (Staphylococcus aureus [26]): 0.125; FIC [27]: 0.125; FIC [28]: 0.125; fractional inhibitory concentration index (FICI) [29]: 0.375; Activity (Escherichia coli [30]): <2 log10CFU/ml; Activity (Cell membrane [31]): inactive; Activity (Cell membrane [32]): inactive; Activity (DNA): 100%; Activity (Lipopolysaccharide (LPS) [36]): 75%; Activity (RAW264.7 [34]): 15.47%; Retention_time [35]: 17.3 min
